{"source": "patent US20070232492A1", "about": "“Herbicidal Composition” (Ishihara Sangyo Kaisha, LTD., priority 2004, published 2007)", "key": {"[1]": {"test_system": "Japanese bulrush (Scirpus juncoides)", "assay": "Growth inhibition of Japanese bulrush in paddy soil pots, application under submerged condition, visual rating and Colby expected value", "type": "in vivo", "source_text": "(§1) When the herbicidal activity in a case where two active ingredients are combined, is larger than the simple sum of the respective herbicidal activities of the two active ingredients (the expected activity), it is called a synergistic effect. The activity expected by the combination of two active ingredients can be calculated as follows (Colby S. R., “Weed”, vol. 15, p. 20-22, 1967). E=p+q−(p×q÷100) where p: growth inhibition rate when treated with x (g/a) of herbicide X,\n(§2) q: growth inhibition rate when treated with y (g/a) of herbicide Y,\n(§3) E: growth inhibition rate expected when treated with x (g/a) of herbicide X and y (g/a) of herbicide Y.\n(§4) Namely, when the actual growth inhibition rate (observed value) is larger than the growth inhibition rate by the above calculation (expected value), the activity by the combination can be regarded as showing a synergistic effect.\n(§5) Growth inhibition rate (%)=0% (equivalent to the non-treated area) to 100% (complete kill)\n(§6) Paddy field soil was put into a 1/10,000 are pot, and seeds of Japanese bulrush (Scirpus juncoides) were sown and left to stand under an irrigated condition with a water depth of 3.5 cm. When Japanese bulrush reached 2.3 to 2.6 leaf stage, a wettable powder of compound A2 and granules of compound (B7.1) were, respectively, diluted with water and applied under submerged condition so that the active ingredients became the prescribed amounts, respectively. The state of growth was visually observed 10 days after application, and evaluation and calculation were carried out in the same manner as in the above Test Example 1.\nas §6, with “an emulsifiable concentrate” for “granules”, “(B3.1)” for “(B7.1)”\nPaddy field soil was put into a 1/10,000 are pot, and seeds of Japanese bulrush (Scirpus juncoides) were sown and left to stand under an irrigated condition with a water depth of 3.5 cm. When Japanese bulrush reached 2 leaf stage, wettable powders of compound A2, C2 and C4 and granules of compound C6 were, respectively, diluted with water and applied under submerged condition so that the active ingredients became the prescribed amounts, respectively.\nPaddy field soil was put into a 1/10,000 are pot, and seeds of Japanese bulrush (Scirpus juncoides) were sown and left to stand under an irrigated condition with a water depth of 3.5 cm. When Japanese bulrush reached 2 leaf stage, wettable powders of compound A2, C2 and C4 and granules of compound C6 were, respectively, diluted with water and applied under submerged condition so that the active ingredients became the prescribed amounts, respectively. The state of growth was visually observed 19 days after application, and the growth inhibition rate (%) evaluated in the same manner as in the above Test Example 1 (observed value) and the growth inhibition rate (%) calculated by the above-mentioned Colby method (expected value) are shown in Tables 36, 37 and 38.\nPaddy field soil was put into a 1/10,000 are pot, and seeds of Japanese bulrush (Scirpus juncoides) were sown and left to stand under an irrigated condition with a water depth of 3.5 cm. When Japanese bulrush reached 3 leaf stage, wettable powders of compound A2 and compound (D2.2) were, respectively, diluted with water and applied under submerged condition so that the active ingredients became the prescribed amounts, respectively. […]"}, "[2]": {"test_system": "barnyardgrass (Echinochloa oryzicola vasing)", "assay": "Growth inhibition of barnyardgrass in paddy soil pots, application under submerged condition, visual rating (observed value) and Colby expected value", "type": "in vivo", "conditions": "for inhibition at 225 g/ha: read-out: Growth inhibition rate (%) Observed, 2.25 g/a", "source_text": "as §1, §2, §3, §4\nPaddy field soil was put into a 1/10,000 are pot, and seeds of barnyardgrass (Echinochloa oryzicola vasing) were sown and left to stand under an irrigated condition with a water depth of 3.5 cm. When barnyardgrass reached 2.0 to 2.5 leaf stage, wettable powders of compound A2 and compound (B1.1) were, respectively, diluted with water and applied under submerged condition so that the active ingredients became the prescribed amounts, respectively. The state of growth was visually observed 21 days after application, and the growth inhibition rate (%) evaluated in accordance with the following evaluation standard (observed value) and the growth inhibition rate (%) calculated by the above-mentioned Colby method (expected value) are shown in Table 1.\nas §5\n(§7) Paddy field soil was put into a 1/10,000 are pot, and seeds of barnyardgrass (Echinochloa oryzicola vasing) were sown and left to stand under an irrigated condition with a water depth of 3.5 cm. When barnyardgrass reached 2.0 to 2.5 leaf stage, wettable powders of compound A2 and compound (B2.1) were, respectively, diluted with water and applied under submerged condition so that the active ingredients became the prescribed amounts, respectively. The state of growth was visually observed 21 days after application, and evaluation and calculation were carried out in the same manner as in the above Test Example 1.\nas §7, with “leaf stage, a wettable powder” for “leaf stage, wettable powders”, “a wettable powder of compound” for “stage, wettable powders of compound”, “A2 and an emulsifiable concentrate of compound (B3.1)” for “A2 and compound (B2.1)”, “of compound (B3.1) were, respectively,” for “and compound (B2.1) were, respectively,”\nas §7, with “(B4.1)” for “(B2.1)”\nPaddy field soil was put into a 1/10,000 are pot, and seeds of barnyardgrass (Echinochloa oryzicola vasing) were sown and left to stand under an irrigated condition with a water depth of 3.5 cm. […]"}, "[3]": {"conditions": "0.5 g/a, 2 leaf stage, 19 days after application, Test Example 33"}, "[4]": {"conditions": "1.0 g/a, 2 leaf stage, 19 days after application, Test Example 33"}, "[5]": {"conditions": "1.5 g/a, 2 leaf stage, 19 days after application, Test Example 34"}, "[6]": {"conditions": "2.0 g/a, 2 leaf stage, 19 days after application, Test Example 33"}, "[7]": {"conditions": "3.75 g/a, 2 leaf stage, 19 days after application, Test Example 34"}, "[8]": {"conditions": "10 g/a, 2 leaf stage, 19 days after application, Test Example 34"}}, "note": "Like-named read-outs stand apart in the source and are kept apart here."}
{"smiles": "CCOC(=O)COc1ccc(Cl)cc1Cl", "note": "[Compound C6, 2,4-D ethyl]", "values": [{"measurement": "Growth inhibition rate (%) Observed", "setting": "[1]; [3]", "value": 23, "unit": "%"}, {"measurement": "Growth inhibition rate (%) Observed", "setting": "[1]; [4]", "value": 33, "unit": "%"}, {"measurement": "Growth inhibition rate (%) Observed", "setting": "[1]; [5]", "value": 20, "unit": "%"}, {"measurement": "Growth inhibition rate (%) Observed", "setting": "[1]; [6]", "value": 53, "unit": "%"}, {"measurement": "Growth inhibition rate (%) Observed", "setting": "[1]; [7]", "value": 45, "unit": "%"}, {"measurement": "Growth inhibition rate (%) Observed", "setting": "[1]; [8]", "value": 68, "unit": "%"}]}
{"smiles": "CC(C)N1C(=O)c2ccccc2NS1(=O)=O", "note": "[Compound (B7.1), bentazone]", "values": [{"measurement": "inhibition at 3300 g/ha", "setting": "[2]; Echinochloa oryzicola, soil, 504 h, 33 g/a, 3.0 to 3.3 leaf stage, 21 days after application, read-out: Growth inhibition rate (%) Observed", "value": 0, "unit": "%"}, {"measurement": "inhibition at 4400 g/ha", "setting": "[2]; Echinochloa oryzicola, soil, 504 h, 44 g/a, 3.0 to 3.3 leaf stage, 21 days after application, read-out: Growth inhibition rate (%) Observed", "value": 0, "unit": "%"}, {"measurement": "inhibition at 413 g/ha", "setting": "[1]; Schoenoplectiella juncoides, soil, 240 h, 4.13 g/a, 2.3 to 2.6 leaf stage, 10 days after application, read-out: Growth inhibition rate (%) Observed", "value": 10, "unit": "%"}, {"measurement": "inhibition at 825 g/ha", "setting": "[1]; Schoenoplectiella juncoides, soil, 240 h, 8.25 g/a, 2.3 to 2.6 leaf stage, 10 days after application, read-out: Growth inhibition rate (%) Observed", "value": 10, "unit": "%"}, {"measurement": "inhibition at 1650 g/ha", "setting": "[1]; Schoenoplectiella juncoides, soil, 240 h, 16.5 g/a, 2.3 to 2.6 leaf stage, 10 days after application, read-out: Growth inhibition rate (%) Observed", "value": 13, "unit": "%"}, {"measurement": "inhibition at 750 g/ha", "setting": "[1]; Schoenoplectiella juncoides, soil, 504 h, 7.5 g/a, 3.8 to 4.2 leaf stage, 21 days after application, Test Example 61, read-out: Growth inhibition rate (%) Observed", "value": 98, "unit": "%"}]}
{"smiles": "CCOC(=O)COc1ccc(Cl)cc1C", "note": "[Compound C2, MCP ethyl]", "values": [{"measurement": "Growth inhibition rate (%) Observed", "setting": "[1]; [3]", "value": 13, "unit": "%"}, {"measurement": "Growth inhibition rate (%) Observed", "setting": "[1]; [4]", "value": 23, "unit": "%"}, {"measurement": "Growth inhibition rate (%) Observed", "setting": "[1]; [5]", "value": 20, "unit": "%"}, {"measurement": "Growth inhibition rate (%) Observed", "setting": "[1]; [6]", "value": 35, "unit": "%"}, {"measurement": "Growth inhibition rate (%) Observed", "setting": "[1]; [7]", "value": 45, "unit": "%"}, {"measurement": "Growth inhibition rate (%) Observed", "setting": "[1]; [8]", "value": 68, "unit": "%"}]}
{"smiles": "CCNc1nc(NCC)nc(SC)n1", "note": "[Compound (B5.1), simetryn]", "values": [{"measurement": "inhibition at 169 g/ha", "setting": "[2]; Echinochloa oryzicola, soil, 504 h, read-out: Growth inhibition rate (%) Observed, 1.69 g/a, 1.0 to 3.0 leaf stage, 21 days after application", "value": 3, "unit": "%"}, {"measurement": "inhibition at 225 g/ha", "setting": "[2]; Echinochloa oryzicola, soil, 504 h, 2.0 to 2.5 leaf stage, 21 days after application", "value": 2, "unit": "%"}, {"measurement": "inhibition at 338 g/ha", "setting": "[2]; Echinochloa oryzicola, soil, 504 h, read-out: Growth inhibition rate (%) Observed, 3.38 g/a, 1.0 to 3.0 leaf stage, 21 days after application", "value": 10, "unit": "%"}, {"measurement": "inhibition at 450 g/ha", "setting": "[2]; Echinochloa oryzicola, soil, 504 h, read-out: Growth inhibition rate (%) Observed, 4.5 g/a, 2.0 to 2.5 leaf stage, 21 days after application", "value": 5, "unit": "%"}, {"measurement": "inhibition at 225 g/ha", "setting": "[2]; Echinochloa oryzicola, soil, 696 h, 2.4 to 3.2 leaf stage, 29 days after application, Test Example 45", "value": 5, "unit": "%"}, {"measurement": "inhibition at 450 g/ha", "setting": "[1]; Schoenoplectiella juncoides, soil, 696 h, read-out: Growth inhibition rate (%) Observed", "value": 25, "unit": "%"}]}
{"smiles": "COc1cc(OC)nc(NC(=O)NS(=O)(=O)c2cccnc2C(O)C(C)F)n1", "note": "(stereo not shown) [Compound A1]", "values": [{"measurement": "Growth inhibition rate (%) Observed", "setting": "[2]; 0.083 g/a, 1.0 to 3.0 leaf stage, 21 days after application", "value": 83, "unit": "%"}, {"measurement": "Growth inhibition rate (%) Observed", "setting": "[2]; 0.083 g/a, 2.8 to 3.2 leaf stage, 19 days after application, Test Examples 62-65", "value": 55, "unit": "%"}, {"measurement": "Growth inhibition rate (%) Observed", "setting": "[2]; 0.083 g/a, 2.8 to 3.2 leaf stage, 21 days after application, Test Examples 39-43", "value": 57, "unit": "%"}, {"measurement": "Growth inhibition rate (%) Observed", "setting": "[2]; 0.083 g/a, 2.8 to 3.4 leaf stage, 14 days after application, Test Examples 66-72", "value": 40, "unit": "%"}, {"measurement": "Growth inhibition rate (%) Observed", "setting": "[2]; 0.083 g/a, 3.0 to 3.3 leaf stage, 21 days after application", "value": 43, "unit": "%"}, {"measurement": "Growth inhibition rate (%) Observed", "setting": "[2]; 0.11 g/a, 1.0 to 3.0 leaf stage, 21 days after application", "value": 97, "unit": "%"}, {"measurement": "Growth inhibition rate (%) Observed", "setting": "[2]; 0.11 g/a, 2.8 to 3.2 leaf stage, 19 days after application, Test Examples 62-65", "value": 93, "unit": "%"}, {"measurement": "Growth inhibition rate (%) Observed", "setting": "[2]; 0.11 g/a, 2.8 to 3.2 leaf stage, 21 days after application, Test Examples 39-43", "value": 67, "unit": "%"}, {"measurement": "Growth inhibition rate (%) Observed", "setting": "[2]; 0.11 g/a, 2.8 to 3.4 leaf stage, 14 days after application, Test Examples 66-72", "value": 53, "unit": "%"}, {"measurement": "Growth inhibition rate (%) Observed", "setting": "[2]; 0.11 g/a, 3.0 to 3.3 leaf stage, 21 days after application", "value": 60, "unit": "%"}, {"measurement": "Growth inhibition rate (%) Observed", "setting": "[2]; 0.165 g/a, 1.0 to 3.0 leaf stage, 21 days after application", "value": 98, "unit": "%"}, {"measurement": "Growth inhibition rate (%) Observed", "setting": "[2]; 0.165 g/a, 2.8 to 3.2 leaf stage, 19 days after application, Test Examples 62-65", "value": 94, "unit": "%"}, {"measurement": "Growth inhibition rate (%) Observed", "setting": "[2]; 0.165 g/a, 2.8 to 3.2 leaf stage, 21 days after application, Test Examples 39-43", "value": 78, "unit": "%"}, {"measurement": "Growth inhibition rate (%) Observed", "setting": "[2]; 0.165 g/a, 2.8 to 3.4 leaf stage, 14 days after application, Test Examples 66-72", "value": 70, "unit": "%"}, {"measurement": "Growth inhibition rate (%) Observed", "setting": "[2]; 0.165 g/a, 3.0 to 3.3 leaf stage, 21 days after application", "value": 75, "unit": "%"}, {"measurement": "Growth inhibition rate (%) Observed", "setting": "[1]; 0.11 g/a, 3.8 to 4.2 leaf stage, 21 days after application, Test Example 61", "value": 65, "unit": "%"}]}
